Assay results taken from US20250257086A1, “EGFR DEGRADATION AGENT” (Beijing Tide Pharmaceutical Co., Ltd., priority 2022, published 2025).

biological target: Ba/F3 (EGFR^L858R/T790M/C797S) cells (Homo sapiens, UniProt P00533, T790M/C797S/L858R, cells depend on it); experiment: Antiproliferative activity on Ba/F3 (EGFR L858R/T790M/C797S) cells (CTG); type: cell-based; conditions: 72h incubation, CTG luminescence, read-out: IC50 (nM), antiproliferative activity
Protocol: 30 nL of the compound dilution was added to a 384-well plate by Echo (Labcyte, Echo550).
The percent inhibition rate (% inhibition) was calculated by the following formula
[formula] • LUMcmpd: Luminescence value of assay compound. • LUMpositive: Average LUM value of positive drug with a concentration of 10 μM. • LUMvehicle: Average LUM value of negative control group without drug treatment.
The nonlinear regression curve (dose response-variable slope) between the value of inhibition rate (%) and the logarithm of compound concentration was fitted with graphpad prism 8.0, the effect dose curve of compound was drawn, and the IC50 value was calculated.
Y=Bottom+(Top−Bottom)/(1+10^((Log IC50−X)*HillSlope)) • X-axis: logarithm of compound concentration; Y axis: inhibition rate (% inhibition).

Sequence of Ba/F3 (EGFR^L858R/T790M/C797S) cells (P00533 whole entry T790M/C797S/L858R): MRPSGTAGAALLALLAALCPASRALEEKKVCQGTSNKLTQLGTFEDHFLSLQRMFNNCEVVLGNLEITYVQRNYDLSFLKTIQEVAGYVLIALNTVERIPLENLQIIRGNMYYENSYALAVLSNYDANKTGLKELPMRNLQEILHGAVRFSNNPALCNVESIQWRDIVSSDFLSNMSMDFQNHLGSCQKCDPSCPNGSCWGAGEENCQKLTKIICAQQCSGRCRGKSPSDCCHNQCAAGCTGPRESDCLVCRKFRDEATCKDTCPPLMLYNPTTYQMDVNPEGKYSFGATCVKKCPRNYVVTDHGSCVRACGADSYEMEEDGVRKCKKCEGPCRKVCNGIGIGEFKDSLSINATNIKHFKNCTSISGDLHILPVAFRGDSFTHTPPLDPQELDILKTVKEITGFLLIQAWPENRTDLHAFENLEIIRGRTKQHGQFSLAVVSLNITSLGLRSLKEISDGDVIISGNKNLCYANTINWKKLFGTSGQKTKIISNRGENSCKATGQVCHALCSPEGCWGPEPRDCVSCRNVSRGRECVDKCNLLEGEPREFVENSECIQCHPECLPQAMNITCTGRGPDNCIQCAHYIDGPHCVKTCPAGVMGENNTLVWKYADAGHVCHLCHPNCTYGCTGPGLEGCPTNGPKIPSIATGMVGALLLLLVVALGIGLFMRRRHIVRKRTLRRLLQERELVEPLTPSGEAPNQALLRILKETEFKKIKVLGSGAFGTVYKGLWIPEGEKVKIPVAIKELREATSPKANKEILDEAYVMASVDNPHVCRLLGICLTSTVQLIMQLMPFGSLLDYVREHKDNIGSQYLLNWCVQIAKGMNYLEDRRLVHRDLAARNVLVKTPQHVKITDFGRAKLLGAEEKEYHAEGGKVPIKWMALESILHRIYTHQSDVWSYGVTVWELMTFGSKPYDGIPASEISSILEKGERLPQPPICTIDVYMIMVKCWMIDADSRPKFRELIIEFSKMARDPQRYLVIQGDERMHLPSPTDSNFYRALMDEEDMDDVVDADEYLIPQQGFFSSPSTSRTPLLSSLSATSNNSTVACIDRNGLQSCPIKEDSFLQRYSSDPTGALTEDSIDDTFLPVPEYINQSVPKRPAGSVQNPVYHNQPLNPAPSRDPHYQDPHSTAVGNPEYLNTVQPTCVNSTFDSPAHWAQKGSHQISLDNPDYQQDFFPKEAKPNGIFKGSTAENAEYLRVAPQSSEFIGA

SMILES | GI50
C=CC(=O)Nc1cc(Nc2ncc(Br)c(Nc3ccccc3P(C)(C)=O)n2)c(OC)cc1N1CCC(N2CCN(C)CC2)CC1 [Comparative compound L495, reference compound] | 3740 nM
C=CC(=O)Nc1cc(Nc2ncc(Cl)c(Nc3ccccc3P(C)(C)=O)n2)c(OC)cc1N1CCC(N2CCN(CCCC#Cc3cccc4c3CN(C3CCC(=O)NC3=O)C4=O)CC2)CC1 (stereo not drawn) [Compound D481, N-(5-((5-chloro-4-((2-(dimethylphosphoryl)phenyl)amino)pyrimidin-2-yl)amino)-2-(4-(4-(5-(2-(2,6-dioxopiperidin-3-yl)-1-oxoisoindolin-4-yl)pent-4-yn-1-yl)piperazin-1-yl)piperidin-1-yl)-4-methoxyphenyl)acrylamide] | 68.7 nM
C=CC(=O)Nc1cc(Nc2ncc(Br)c(Nc3ccccc3P(C)(C)=O)n2)ccc1N1CCC(N2CCN(CCCCC#Cc3cccc4c3CN(C3CCC(=O)NC3=O)C4=O)CC2)CC1 (stereo not drawn) [Compound D550, N-(5-((5-bromo-4-((2-(dimethylphosphoryl)phenyl)amino)pyrimidin-2-yl)amino)-2-(4-(4-(6-(2-(2,6-dioxopiperidin-3-yl)-1-oxoisoindolin-4-yl)hex-5-yn-1-yl)piperazin-1-yl)piperidin-1-yl)phenyl)acrylamide] | 14.4 nM
C=C(F)C(=O)Nc1cc(Nc2ncc(Cl)c(Nc3ccccc3P(C)(C)=O)n2)c(OC)cc1N1CCC(N2CCN(CCCCCC#Cc3cccc4c3CN(C3CCC(=O)NC3=O)C4=O)CC2)CC1 (stereo not drawn) [Compound D554, N-(5-((5-chloro-4-((2-(dimethylphosphoryl)phenyl)amino)pyrimidin-2-yl)amino)-2-(4-(4-(7-(2-(2,6-dioxopiperidin-3-yl)-1-oxoisoindolin-4-yl)hept-6-yn-1-yl)piperazin-1-yl)piperidin-1-yl)-4-methoxyphenyl)-2-fluoroacrylamide] | 45.2 nM
COc1cc(N2CCC(N3CCN(CCCC#Cc4cccc5c4CN(C4CCC(=O)NC4=O)C5=O)CC3)CC2)c(NC(=O)/C=C/CN(C)C)cc1Nc1ncc(Cl)c(Nc2ccccc2P(C)(C)=O)n1 (stereo not drawn) [Compound D555, N-(5-((5-chloro-4-((2-(dimethylphosphoryl)phenyl)amino)pyrimidin-2-yl)amino)-2-(4-(4-(5-(2-(2,6-dioxopiperidin-3-yl)-1-oxoisoindolin-4-yl)pent-4-yn-1-yl)piperazin-1-yl)piperidin-1-yl)-4-methoxyphenyl)-4-(dimethylamino)but-2-enamide] | 67.6 nM
COc1cc(N2CCC(N3CCN(CCCCC#Cc4cccc5c4CN(C4CCC(=O)NC4=O)C5=O)CC3)CC2)c(NC(=O)/C=C/CN(C)C)cc1Nc1ncc(Cl)c(Nc2ccccc2P(C)(C)=O)n1 (stereo not drawn) [Compound D556, (E)-N-(5-((5-chloro-4-((2-(dimethylphosphoryl)phenyl)amino)pyrimidin-2-yl)amino)-2-(4-(4-(6-(2-(2,6-dioxopiperidin-3-yl)-1-oxoisoindolin-4-yl)hex-5-yn-1-yl)piperazin-1-yl)piperidin-1-yl)-4-dimethoxyphenyl)-4-(dimethylamino)but-2-enamide] | 582 nM
CC#CC(=O)Nc1cc(Nc2ncc(Cl)c(Nc3ccccc3P(C)(C)=O)n2)c(OC)cc1N1CCC(N2CCN(CCCCC#Cc3cccc4c3CN(C3CCC(=O)NC3=O)C4=O)CC2)CC1 (stereo not drawn) [Compound D559, N-(5-((5-chloro-4-((2-(dimethylphosphoryl)phenyl)amino)pyrimidin-2-yl)amino)-2-(4-(4-(6-(2-(2,6-dioxopiperidin-3-yl)-1-oxoisoindolin-4-yl)hex-5-yn-1-yl)piperazin-1-yl)piperidin-1-yl)-4-methoxyphenyl)but-2-ynamide] | 50.4 nM
CC#CC(=O)Nc1cc(Nc2ncc(Cl)c(Nc3ccccc3P(C)(C)=O)n2)c(OC)cc1N1CCC(N2CCN(CCCCCC#Cc3cccc4c3CN(C3CCC(=O)NC3=O)C4=O)CC2)CC1 (stereo not drawn) [Compound D560, N-(5-((5-chloro-4-((2-(dimethylphosphoryl)phenyl)amino)pyrimidin-2-yl)amino)-2-(4-(4-(7-(2-(2,6-dioxopiperidin-3-yl)-1-oxoisoindolin-4-yl)hept-6-yn-1-yl)piperazin-1-yl)piperidin-1-yl)-4-methoxyphenyl)but-2-ynamide] | 112 nM
COc1cc(N2CCC(N3CCN(CCCCCC#Cc4cccc5c4CN(C4CCC(=O)NC4=O)C5=O)CC3)CC2)c(NC(=O)/C=C/CN(C)C)cc1Nc1ncc(Br)c(Nc2ccccc2P(C)(C)=O)n1 (stereo not drawn) [Compound D563, N-(5-((5-bromo-4-((2-(dimethylphosphoryl)phenyl)amino)pyrimidin-2-yl)amino)-2-(4-(4-(7-(2-(2,6-dioxopiperidin-3-yl)-1-oxoisoindolin-4-yl)hept-6-yn-1-yl)piperazin-1-yl)piperidin-1-yl)-4-dimethoxyphenyl)-4-(dimethylamino)but-2-enamide] | 306 nM

Further molecules by falling GI50, results first:

GI50 | SMILES
3050 nM | CC#CC(=O)Nc1cc(Nc2ncc(Cl)c(Nc3ccccc3P(C)(C)=O)n2)c(OC)cc1N1CCC(N2CCN(C)CC2)CC1 [Comparative compound L521, reference compound]
2600 nM | COc1cc(N2CCC(N3CCN(CCCC#Cc4cccc5c4CN(C4CCC(=O)NC4=O)C5=O)CC3)CC2)c(NC(=O)/C=C/c2c[nH]cn2)cc1Nc1ncc(Cl)c(Nc2ccccc2P(C)(C)=O)n1 (stereo not drawn) [Compound D581, N-(5-((5-chloro-4-((2-(dimethylphosphoryl)phenyl)amino)pyrimidin-2-yl)amino)-2-(4-(4-(5-(2-(2,6-dioxopiperidin-3-yl)-1-oxoisoindolin-4-yl)pent-4-yn-1-yl)piperazin-1-yl)piperidin-1-yl)-4-methoxyphenyl)-3-(1H-imidazol-4-yl)acrylamide]
383 nM | COc1cc(N2CCC(N3CCN(CCCCCC#Cc4cccc5c4CN(C4CCC(=O)NC4=O)C5=O)CC3)CC2)c(NC(=O)/C=C/CN(C)C)cc1Nc1ncc(Cl)c(Nc2ccccc2P(C)(C)=O)n1 (stereo not drawn) [Compound D557, (E)-N-(5-((5-chloro-4-((2-(dimethylphosphoryl)phenyl)amino)pyrimidin-2-yl)amino)-2-(4-(4-(7-(2-(2,6-dioxopiperidin-3-yl)-1-oxoisoindolin-4-yl)hept-6-yn-1-yl)piperazin-1-yl)piperidin-1-yl)-4-dimethoxyphenyl)-4-(dimethylamino)but-2-enamide]
86.8 nM | C=CC(=O)Nc1cc(Nc2ncc(Br)c(Nc3ccccc3P(C)(C)=O)n2)c(OC)cc1N1CCC(N2CCN(CCCCC#Cc3cccc4c3CN(C3CCC(=O)NC3=O)C4=O)CC2)CC1 (stereo not drawn) [Compound D479, N-(5-((5-bromo-4-((2-(dimethylphosphoryl)phenyl)amino)pyrimidin-2-yl)amino)-2-(4-(4-(6-(2-(2,6-dioxopiperidin-3-yl)-1-oxoisoindolin-4-yl)hex-5-yn-1-yl)piperazin-1-yl)piperidin-1-yl)-4-methoxyphenyl)acrylamide]
51.2 nM | C=CC(=O)Nc1cc(Nc2ncc(Br)c(Nc3ccccc3P(C)(C)=O)n2)c(OC)cc1N1CCC(N2CCN(CCCCCC#Cc3cccc4c3CN(C3CCC(=O)NC3=O)C4=O)CC2)CC1 (stereo not drawn) [Compound D503, N-(5-((5-bromo-4-((2-(dimethylphosphoryl)phenyl)amino)pyrimidin-2-yl)amino)-2-(4-(4-(7-(2-(2,6-dioxopiperidin-3-yl)-1-oxoisoindolin-4-yl)hept-6-yn-1-yl)piperazin-1-yl)piperidin-1-yl)-4-methoxyphenyl)acrylamide]
49.5 nM | C=C(F)C(=O)Nc1cc(Nc2ncc(Cl)c(Nc3ccccc3P(C)(C)=O)n2)c(OC)cc1N1CCC(N2CCN(CCCCC#Cc3cccc4c3CN(C3CCC(=O)NC3=O)C4=O)CC2)CC1 (stereo not drawn) [Compound D553, N-(5-((5-chloro-4-((2-(dimethylphosphoryl)phenyl)amino)pyrimidin-2-yl)amino)-2-(4-(4-(6-(2-(2,6-dioxopiperidin-3-yl)-1-oxoisoindolin-4-yl)hex-5-yn-1-yl)piperazin-1-yl)piperidin-1-yl)-4-methoxyphenyl)-2-fluoroacrylamide]
41.4 nM | C=C(C)C(=O)Nc1cc(Nc2ncc(Cl)c(Nc3ccccc3P(C)(C)=O)n2)c(OC)cc1N1CCC(N2CCN(CCCC#Cc3cccc4c3CN(C3CCC(=O)NC3=O)C4=O)CC2)CC1 (stereo not drawn) [Compound D579, N-(5-((5-chloro-4-((2-(dimethylphosphoryl)phenyl)amino)pyrimidin-2-yl)amino)-2-(4-(4-(5-(2-(2,6-dioxopiperidin-3-yl)-1-oxoisoindolin-4-yl)pent-4-yn-1-yl)piperazin-1-yl)piperidin-1-yl)-4-methoxyphenyl)methacrylamide]
14.5 nM | C=CC(=O)Nc1cc(Nc2ncc(Br)c(Nc3ccccc3P(C)(C)=O)n2)ccc1N1CCC(N2CCN(CCCCCC#Cc3cccc4c3CN(C3CCC(=O)NC3=O)C4=O)CC2)CC1 (stereo not drawn) [Compound D551, N-(5-((5-bromo-4-((2-(dimethylphosphoryl)phenyl)amino)pyrimidin-2-yl)amino)-2-(4-(4-(7-(2-(2,6-dioxopiperidin-3-yl)-1-oxoisoindolin-4-yl)hept-6-yn-1-yl)piperazin-1-yl)piperidin-1-yl)phenyl)acrylamide]
7.41 nM | C=CC(=O)Nc1cc(Nc2ncc(Br)c(Nc3ccccc3P(C)(C)=O)n2)ccc1N1CCC(N2CCN(CCCC#Cc3cccc4c3CN(C3CCC(=O)NC3=O)C4=O)CC2)CC1 (stereo not drawn) [Compound D549, N-(5-((5-bromo-4-((2-(dimethylphosphoryl)phenyl)amino)pyrimidin-2-yl)amino)-2-(4-(4-(5-(2-(2,6-dioxopiperidin-3-yl)-1-oxoisoindolin-4-yl)pent-4-yn-1-yl)piperazin-1-yl)piperidin-1-yl)phenyl)acrylamide]
